Measured values as given in the NIST ThermoML archive (doi:10.1021/je034087q).

Assay: xn = mol fraction of the nth substance listed
Details: Fluid (supercritical or subcritical phases)

CC(C)=O [acetone] + O=C=O
Details | mass density [kg/m3]
335.15 K, 10350 kPa, x2 = 0.909 | 583
335.15 K, 10420 kPa, x2 = 0.909 | 589
335.15 K, 10500 kPa, x2 = 0.909 | 593
335.15 K, 10590 kPa, x2 = 0.909 | 599
335.15 K, 10680 kPa, x2 = 0.909 | 604
335.15 K, 10780 kPa, x2 = 0.909 | 611
335.15 K, 10890 kPa, x2 = 0.909 | 616
335.15 K, 11020 kPa, x2 = 0.909 | 623
335.15 K, 11150 kPa, x2 = 0.909 | 628
335.15 K, 11280 kPa, x2 = 0.909 | 635
335.15 K, 11440 kPa, x2 = 0.909 | 640
335.15 K, 11600 kPa, x2 = 0.909 | 648
335.15 K, 11790 kPa, x2 = 0.909 | 653
335.15 K, 12010 kPa, x2 = 0.909 | 661
335.15 K, 12240 kPa, x2 = 0.909 | 667
335.15 K, 12460 kPa, x2 = 0.909 | 675
335.15 K, 12750 kPa, x2 = 0.909 | 681
335.15 K, 13080 kPa, x2 = 0.909 | 691
335.15 K, 13400 kPa, x2 = 0.909 | 697
335.15 K, 13770 kPa, x2 = 0.909 | 706
335.15 K, 14150 kPa, x2 = 0.909 | 711
335.15 K, 14600 kPa, x2 = 0.909 | 721
336.35 K, 9960 kPa, x2 = 0.902 | 531
336.35 K, 10000 kPa, x2 = 0.902 | 535
336.35 K, 10030 kPa, x2 = 0.902 | 538
336.35 K, 10080 kPa, x2 = 0.902 | 542
336.35 K, 10110 kPa, x2 = 0.902 | 545
336.35 K, 10150 kPa, x2 = 0.902 | 547
336.35 K, 10190 kPa, x2 = 0.902 | 551
336.35 K, 10230 kPa, x2 = 0.902 | 555
336.35 K, 10260 kPa, x2 = 0.902 | 558
336.35 K, 10310 kPa, x2 = 0.902 | 561
336.35 K, 10360 kPa, x2 = 0.902 | 566
336.35 K, 10390 kPa, x2 = 0.902 | 569
336.35 K, 10450 kPa, x2 = 0.902 | 573
336.35 K, 10540 kPa, x2 = 0.902 | 579
336.35 K, 10610 kPa, x2 = 0.902 | 583
336.35 K, 10710 kPa, x2 = 0.902 | 590
336.35 K, 10810 kPa, x2 = 0.902 | 595
336.35 K, 10910 kPa, x2 = 0.902 | 602
336.35 K, 11020 kPa, x2 = 0.902 | 606
336.35 K, 11100 kPa, x2 = 0.902 | 611
336.35 K, 11200 kPa, x2 = 0.902 | 616
336.35 K, 11320 kPa, x2 = 0.902 | 620
336.35 K, 11420 kPa, x2 = 0.902 | 625
336.35 K, 11570 kPa, x2 = 0.902 | 631
336.35 K, 11700 kPa, x2 = 0.902 | 638
336.35 K, 11790 kPa, x2 = 0.902 | 641
336.35 K, 11950 kPa, x2 = 0.902 | 645
336.35 K, 12080 kPa, x2 = 0.902 | 649
336.35 K, 12210 kPa, x2 = 0.902 | 654
336.35 K, 12400 kPa, x2 = 0.902 | 659
336.35 K, 12570 kPa, x2 = 0.902 | 663
336.35 K, 12710 kPa, x2 = 0.902 | 668
336.35 K, 12940 kPa, x2 = 0.902 | 673
336.35 K, 13140 kPa, x2 = 0.902 | 678
336.35 K, 13320 kPa, x2 = 0.902 | 684
336.35 K, 13580 kPa, x2 = 0.902 | 688
336.35 K, 13900 kPa, x2 = 0.902 | 694
336.35 K, 14180 kPa, x2 = 0.902 | 701
336.35 K, 14450 kPa, x2 = 0.902 | 706
336.35 K, 14700 kPa, x2 = 0.902 | 710
336.35 K, 14920 kPa, x2 = 0.902 | 715
338.15 K, 10080 kPa, x2 = 0.902 | 511
338.15 K, 10110 kPa, x2 = 0.902 | 515
338.15 K, 10180 kPa, x2 = 0.902 | 520
338.15 K, 10230 kPa, x2 = 0.902 | 524
338.15 K, 10280 kPa, x2 = 0.902 | 529
338.15 K, 10340 kPa, x2 = 0.902 | 533
338.15 K, 10380 kPa, x2 = 0.902 | 538
338.15 K, 10430 kPa, x2 = 0.902 | 542
338.15 K, 10500 kPa, x2 = 0.902 | 548
338.15 K, 10560 kPa, x2 = 0.902 | 552
338.15 K, 10640 kPa, x2 = 0.902 | 558
338.15 K, 10710 kPa, x2 = 0.902 | 563
338.15 K, 10780 kPa, x2 = 0.902 | 569
338.15 K, 10860 kPa, x2 = 0.902 | 573
338.15 K, 10910 kPa, x2 = 0.902 | 581
338.15 K, 10980 kPa, x2 = 0.902 | 584
338.15 K, 11080 kPa, x2 = 0.902 | 590
338.15 K, 11200 kPa, x2 = 0.902 | 595
338.15 K, 11280 kPa, x2 = 0.902 | 600
338.15 K, 11350 kPa, x2 = 0.902 | 603
338.15 K, 11420 kPa, x2 = 0.902 | 606
338.15 K, 11510 kPa, x2 = 0.902 | 610
338.15 K, 11590 kPa, x2 = 0.902 | 615
338.15 K, 11630 kPa, x2 = 0.902 | 616
338.15 K, 11710 kPa, x2 = 0.902 | 619
338.15 K, 11790 kPa, x2 = 0.902 | 622
338.15 K, 11880 kPa, x2 = 0.902 | 627
338.15 K, 11950 kPa, x2 = 0.902 | 629
338.15 K, 12040 kPa, x2 = 0.902 | 632
338.15 K, 12110 kPa, x2 = 0.902 | 634
338.15 K, 12240 kPa, x2 = 0.902 | 640
338.15 K, 12330 kPa, x2 = 0.902 | 642
338.15 K, 12460 kPa, x2 = 0.902 | 646
338.15 K, 12570 kPa, x2 = 0.902 | 651
338.15 K, 12700 kPa, x2 = 0.902 | 654
338.15 K, 12880 kPa, x2 = 0.902 | 659
338.15 K, 13010 kPa, x2 = 0.902 | 663
338.15 K, 13200 kPa, x2 = 0.902 | 668
338.15 K, 13320 kPa, x2 = 0.902 | 671
338.15 K, 13480 kPa, x2 = 0.902 | 675
338.15 K, 13710 kPa, x2 = 0.902 | 680
338.15 K, 13860 kPa, x2 = 0.902 | 684
338.15 K, 14080 kPa, x2 = 0.902 | 689
338.15 K, 14300 kPa, x2 = 0.902 | 693
338.15 K, 14560 kPa, x2 = 0.902 | 699
338.15 K, 14780 kPa, x2 = 0.902 | 700
338.15 K, 15010 kPa, x2 = 0.902 | 705
